Assay results: patent publication US9981973B2, “Tricyclic compounds as inhibitors of immunosuppression mediated by tryptophan metabolization” (NewLink Genetics Corporation, priority 2013, dated 2018)

What follows are molecules tested against purified human TDO protein (Homo sapiens (Human), UniProt P48775) (assay: Enzymatic TDO assay).
Format: biochemical
Protocol: Differently from the IDO activity assay, no methylene blue is added to the assay. The inhibitors were initially diluted in DMSO at 100 mM and were diluted in potassium phosphate 50 mM, added to the reaction mixture at final concentrations raging from 30 μM to 5 nM and preincubated with the enzyme for 5 min at 25° C. The reaction was started by addition of L-tryptophan to 20 μM and incubated 15 min at 37° C. The reaction was stopped by addition of 0.5 vol of 30% trichloroacetic acid and incubated 30 min at 60° C. to hydrolyze N-formylkynurenine to kynurenine. The reaction was centrifuged at 3400 g for 5 min to remove precipitated protein and the supernatant was reacted with 2% (w/v) of p-dimethylaminobenzaldehyde in acetic acid. The reaction was incubated 10 min at 25° C. and read at 480 nm in a spectrophotometer. Control samples with no TDO inhibitor, or with no TDO enzyme were used as controls to set the parameters for the non-linear regressions necessary for determination of the IC50 for each compound. Nonlinear regressions and determination of the IC50 values were performed using the GraphPad Prism 4 software.

Chain of purified human TDO protein (P48775 whole entry): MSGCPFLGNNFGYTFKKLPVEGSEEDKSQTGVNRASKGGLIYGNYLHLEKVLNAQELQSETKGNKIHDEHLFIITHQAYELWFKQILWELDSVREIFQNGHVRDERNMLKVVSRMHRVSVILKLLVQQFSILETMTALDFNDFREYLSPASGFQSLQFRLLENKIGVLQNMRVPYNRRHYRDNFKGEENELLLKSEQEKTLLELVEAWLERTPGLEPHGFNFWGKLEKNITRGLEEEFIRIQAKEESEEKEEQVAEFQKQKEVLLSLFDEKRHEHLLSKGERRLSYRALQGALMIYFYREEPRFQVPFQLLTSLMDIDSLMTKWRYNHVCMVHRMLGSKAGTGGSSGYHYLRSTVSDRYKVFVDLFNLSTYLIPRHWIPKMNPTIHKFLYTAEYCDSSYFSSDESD

Row | IC50 | SMILES
1 | > 10 µM | O=C(CC1c2ccccc2-c2nncn21)C1CCCCC1 (stereo not drawn) [Compound 43, 2-(5H-[1,2,4]triazolo[3,4-a]isoindol-5-yl)-1-cyclohexylethan-1-one]
2 | > 10 µM | O=C(CC1c2ccccc2-c2cnnn21)C1CCC(F)(F)CC1 (stereo not drawn) [Compound 54, 2-(8H-[1,2,3]triazolo[5,1-a]isoindol-8-yl)-1-(4,4-difluorocyclohexyl)ethan-1-one]
3 | > 10 µM | OC(CC1c2ccccc2-c2nncn21)C1CCCCC1 (stereo not drawn) [Compound 69, 2-(5H-[1,2,4]triazolo[3,4-a]isoindol-5-yl)-1-cyclohexylethan-1-ol]
